Test system: 475296-252-R-J1-PDC spheroid viability
Assay: Anticancer human tumor 475296-252-R-J1-PDC patient-derived rectal carcinoma cell line growth inhibition [PI3K]
Settings: spheroids with HUVEC and MSC; for IC50: curve of first compound; for viability, T/C: stronger effect = lower value
Summary of the method: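 Multi-cell spheroids combine tumor cells with HUVEC and human MSCs, treated with targeted agents alone or with inavolisib, alpelisib, duvelisib or copanlisib. Concentrations fall in half-log steps from at or near clinical Cmax, or from 10 microM where Cmax is unknown; viability read-out.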

[1] = second compound 0.0316 µM, first compound 0.0316 µM
[2] = second compound 0.0316 µM, first compound 0.1 µM
[3] = second compound 0.0316 µM, first compound 0.316 µM
[4] = second compound 0.0316 µM, first compound 1 µM
[5] = second compound 0.1 µM, first compound 0.0316 µM
[6] = second compound 0.1 µM, first compound 0.1 µM
[7] = second compound 0.1 µM, first compound 0.316 µM
[8] = second compound 0.1 µM, first compound 1 µM
[9] = second compound 0.316 µM, first compound 0.0316 µM
[10] = second compound 0.316 µM, first compound 0.1 µM
[11] = second compound 0.316 µM, first compound 0.316 µM
[12] = second compound 0.316 µM, first compound 1 µM
[13] = second compound 1 µM, first compound 0.0316 µM
[14] = second compound 1 µM, first compound 0.1 µM
[15] = second compound 1 µM, first compound 0.316 µM
[16] = second compound 1 µM, first compound 1 µM
[17] = second compound 3.16 µM, first compound 0.0316 µM
[18] = second compound 3.16 µM, first compound 0.1 µM
[19] = second compound 3.16 µM, first compound 0.316 µM
[20] = second compound 3.16 µM, first compound 1 µM
[21] = second compound 10 µM, first compound 0.0316 µM
[22] = second compound 10 µM, first compound 0.1 µM
[23] = second compound 10 µM, first compound 0.316 µM
[24] = second compound 10 µM, first compound 1 µM
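Further: spheroids exposed to agents for seven days before readout.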

## CCCS(=O)(=O)Nc1ccc(F)c(C(=O)c2c[nH]c3ncc(-c4ccc(Cl)cc4)cc23)c1F + CC(Nc1ncnc2nc[nH]c12)c1cc2cccc(Cl)c2c(=O)n1-c1ccccc1
Second compound 0.0316 µM
  IC50: > 10 µM
Second compound 0.1 µM
  IC50: > 10 µM
Second compound 0.316 µM
  IC50: > 10 µM
Second compound 1 µM
  IC50: > 10 µM
Second compound 3.16 µM
  IC50: > 10 µM
Second compound 10 µM
  IC50: > 10 µM
[1]
  viability, T/C: 96.5%
[2]
  viability, T/C: 112%
[3]
  viability, T/C: 103%
[4]
  viability, T/C: 94.8%
Second compound 0.0316 µM, first compound 3.16 µM
  viability, T/C: 85.1%
Second compound 0.0316 µM, first compound 10 µM
  viability, T/C: 110%
[5]
  viability, T/C: 110%
[6]
  viability, T/C: 110%
[7]
  viability, T/C: 97.3%
[8]
  viability, T/C: 90.6%
Second compound 0.1 µM, first compound 3.16 µM
  viability, T/C: 107%
Second compound 0.1 µM, first compound 10 µM
  viability, T/C: 100%
[9]
  viability, T/C: 94.6%
[10]
  viability, T/C: 88.6%
[11]
  viability, T/C: 99.4%
[12]
  viability, T/C: 101%
Second compound 0.316 µM, first compound 3.16 µM
  viability, T/C: 90.9%
Second compound 0.316 µM, first compound 10 µM
  viability, T/C: 105%
[13]
  viability, T/C: 89.5%
[14]
  viability, T/C: 104%
[15]
  viability, T/C: 96.2%
[16]
  viability, T/C: 90.6%
Second compound 1 µM, first compound 3.16 µM
  viability, T/C: 96.7%
Second compound 1 µM, first compound 10 µM
  viability, T/C: 96.6%
[17]
  viability, T/C: 97%
[18]
  viability, T/C: 104%
[19]
  viability, T/C: 90%
[20]
  viability, T/C: 100%
Second compound 3.16 µM, first compound 3.16 µM
  viability, T/C: 87.6%
Second compound 3.16 µM, first compound 10 µM
  viability, T/C: 87.4%
[21]
  viability, T/C: 101%
[22]
  viability, T/C: 80.1%
[23]
  viability, T/C: 79.8%
[24]
  viability, T/C: 97%
Second compound 10 µM, first compound 3.16 µM
  viability, T/C: 90.3%
Second compound 10 µM, first compound 10 µM
  viability, T/C: 92.3%

## CCN1CCN(Cc2ccc(Nc3ncc(F)c(-c4cc(F)c5nc(C)n(C(C)C)c5c4)n3)nc2)CC1 + Cc1nc(NC(=O)N2CCCC2C(N)=O)sc1-c1ccnc(C(C)(C)C(F)(F)F)c1
Second compound 0.0316 µM
  IC50: > 1 µM
Second compound 0.1 µM
  IC50: > 1 µM
Second compound 0.316 µM
  IC50: > 1 µM
Second compound 1 µM
  IC50: > 1 µM
Second compound 3.16 µM
  IC50: > 1 µM
Second compound 10 µM
  IC50: > 1 µM
Second compound 0.0316 µM, first compound 0.00316 µM
  viability, T/C: 95.8%
Second compound 0.0316 µM, first compound 0.01 µM
  viability, T/C: 93.4%
[1]
  viability, T/C: 107%
[2]
  viability, T/C: 90%
[3]
  viability, T/C: 114%
[4]
  viability, T/C: 104%
Second compound 0.1 µM, first compound 0.00316 µM
  viability, T/C: 95.8%
Second compound 0.1 µM, first compound 0.01 µM
  viability, T/C: 97.8%
[5]
  viability, T/C: 112%
[6]
  viability, T/C: 90.4%
[7]
  viability, T/C: 98.8%
[8]
  viability, T/C: 84.3%
Second compound 0.316 µM, first compound 0.00316 µM
  viability, T/C: 107%
Second compound 0.316 µM, first compound 0.01 µM
  viability, T/C: 105%
[9]
  viability, T/C: 87.6%
[10]
  viability, T/C: 99.4%
[11]
  viability, T/C: 98%
[12]
  viability, T/C: 88.6%
Second compound 1 µM, first compound 0.00316 µM
  viability, T/C: 81.4%
Second compound 1 µM, first compound 0.01 µM
  viability, T/C: 90.5%
[13]
  viability, T/C: 98.7%
[14]
  viability, T/C: 88.5%
[15]
  viability, T/C: 89.2%
[16]
  viability, T/C: 87.7%
Second compound 3.16 µM, first compound 0.00316 µM
  viability, T/C: 98.2%
Second compound 3.16 µM, first compound 0.01 µM
  viability, T/C: 108%
[17]
  viability, T/C: 82.5%
[18]
  viability, T/C: 95%
[19]
  viability, T/C: 90.7%
[20]
  viability, T/C: 73.1%
Second compound 10 µM, first compound 0.00316 µM
  viability, T/C: 93.3%
Second compound 10 µM, first compound 0.01 µM
  viability, T/C: 88.3%
[21]
  viability, T/C: 96.7%
[22]
  viability, T/C: 81.1%
[23]
  viability, T/C: 90.4%
[24]
  viability, T/C: 70.4%

From PubChem BioAssay AID1963980 (Molecular Pharmacology Branch, DTP, NCI, 2024)
